ChEMBL document CHEMBL3885861, “Open TG-GATES”

Organism: Rattus norvegicus
Experiment: Open TG-GATES - Regimen: Single
Assay type: toxicity, organism-based, Sprague-Dawley
Design: regimen Single, gender Male, age 6 weeks
Conditions: in vivo, po, route gavage; for APTT / Bas / Eos / Fbg / Hb / Ht / Lym / MCH / MCHC / MCV / Mono / Neu / PT / Plat / RBC / Ret / WBC: tissue Blood; for KIDNEY_L / KIDNEY_R / KIDNEY_TOTAL: tissue Kidney; for LIVER: tissue Liver; for A/G / ALP / ALT / AST / BUN / CRE / Ca / Cl / DBIL / GLC / IP / K / LDH / Na / PL / RALB / TBIL / TC / TG / TP / gamma-GTP: tissue Plasma
[1] = 50 mg/kg, 3 h, dose level Middle
[2] = 50 mg/kg, 6 h, dose level Middle
[3] = 50 mg/kg, 9 h, dose level Middle
[4] = 50 mg/kg, 24 h, dose level Middle
[5] = 150 mg/kg, 3 h, dose level High
[6] = 150 mg/kg, 6 h, dose level High
[7] = 150 mg/kg, 9 h, dose level High
[8] = 150 mg/kg, 24 h, dose level High

## CC1=C(CC(=O)O)c2cc(F)ccc2/C1=C\c1ccc([S+](C)[O-])cc1 (centres undefined)
[1]
  TERMINAL_BW: 204.9 g
  APTT: 16.8 s
  Bas: 0%
  Eos: 1%
  Fbg: 266 mg/dL
  Hb: 13.2 g/dL
  Ht: 40.3%
  Lym: 77.6%
  MCH: 21.2 pg
  MCHC: 32.7%
  MCV: 65 fL
  Mono: 2.6%
  Neu: 18.4%
  PT: 14.1 s
  Plat: 130.3 x10_4/uL
  RBC: 620.8 x10_4/ul
  Ret: 8.7%
  WBC: 77.3 x10_2/uL
  KIDNEY_L: 0.9 g
  KIDNEY_R: 0.9 g
  KIDNEY_TOTAL: 1.8 g
  LIVER: 9 g
  A/G: 0.9
  ALP: 1442.8 IU/L
  ALT: 43.4 IU/L
  AST: 76.2 IU/L
  BUN: 11.4 mg/dL
  CRE: 0.2 mg/dL
  Ca: 11 mg/dL
  Cl: 104.8 meq/L
  DBIL: 0.01 mg/dL
  GLC: 166.8 mg/dL
  IP: 8.6 mg/dL
  K: 3.9 meq/L
  LDH: 81.4 IU/L
  Na: 141.6 meq/L
  PL: 140.4 mg/dL
  RALB: 2.5 g/dL
  TBIL: 0.046 mg/dL
  TC: 74.6 mg/dL
  TG: 58.8 mg/dL
  TP: 5.3 g/dL
  gamma-GTP: 1.2 IU/L
[2]
  TERMINAL_BW: 201.8 g
  APTT: 15.7 s
  Bas: 0%
  Eos: 0.8%
  Fbg: 289.4 mg/dL
  Hb: 13.7 g/dL
  Ht: 42.1%
  Lym: 78.4%
  MCH: 21.1 pg
  MCHC: 32.6%
  MCV: 64.6 fL
  Mono: 3%
  Neu: 17.2%
  PT: 13.8 s
  Plat: 113.6 x10_4/uL
  RBC: 652.4 x10_4/ul
  Ret: 7.8%
  WBC: 73.5 x10_2/uL
  KIDNEY_L: 0.9 g
  KIDNEY_R: 0.9 g
  KIDNEY_TOTAL: 1.9 g
  LIVER: 8.4 g
  A/G: 0.9
  ALP: 1437 IU/L
  ALT: 44.4 IU/L
  AST: 69.8 IU/L
  BUN: 10.8 mg/dL
  CRE: 0.2 mg/dL
  Ca: 11 mg/dL
  Cl: 106 meq/L
  DBIL: 0.01 mg/dL
  GLC: 172.4 mg/dL
  IP: 9.4 mg/dL
  K: 4.3 meq/L
  LDH: 69.6 IU/L
  Na: 141 meq/L
  PL: 135.6 mg/dL
  RALB: 2.6 g/dL
  TBIL: 0.044 mg/dL
  TC: 70.8 mg/dL
  TG: 47.8 mg/dL
  TP: 5.3 g/dL
  gamma-GTP: 1 IU/L
[3]
  TERMINAL_BW: 202.2 g
  APTT: 16.8 s
  Bas: 0%
  Eos: 0.8%
  Fbg: 291.6 mg/dL
  Hb: 13.5 g/dL
  Ht: 41.5%
  Lym: 79.4%
  MCH: 20.6 pg
  MCHC: 32.6%
  MCV: 63.2 fL
  Mono: 2.6%
  Neu: 16.8%
  PT: 14 s
  Plat: 117.4 x10_4/uL
  RBC: 656.4 x10_4/ul
  Ret: 7.8%
  WBC: 67.5 x10_2/uL
  KIDNEY_L: 0.9 g
  KIDNEY_R: 0.9 g
  KIDNEY_TOTAL: 1.9 g
  LIVER: 8.2 g
  A/G: 0.9
  ALP: 1341.4 IU/L
  ALT: 42.2 IU/L
  AST: 67.8 IU/L
  BUN: 11.2 mg/dL
  CRE: 0.2 mg/dL
  Ca: 10.8 mg/dL
  Cl: 106.6 meq/L
  DBIL: 0.01 mg/dL
  GLC: 177.6 mg/dL
  IP: 9.9 mg/dL
  K: 4.4 meq/L
  LDH: 65.6 IU/L
  Na: 142 meq/L
  PL: 135 mg/dL
  RALB: 2.6 g/dL
  TBIL: 0.04 mg/dL
  TC: 71.6 mg/dL
  TG: 38 mg/dL
  TP: 5.3 g/dL
  gamma-GTP: 1.2 IU/L
[4]
  TERMINAL_BW: 210.3 g
  APTT: 16.1 s
  Bas: 0%
  Eos: 0.6%
  Fbg: 354.6 mg/dL
  Hb: 13.7 g/dL
  Ht: 42.2%
  Lym: 62%
  MCH: 21 pg
  MCHC: 32.5%
  MCV: 64.8 fL
  Mono: 3.2%
  Neu: 33.8%
  PT: 13.5 s
  Plat: 133.9 x10_4/uL
  RBC: 653.2 x10_4/ul
  Ret: 7.9%
  WBC: 115.7 x10_2/uL
  KIDNEY_L: 0.9 g
  KIDNEY_R: 0.9 g
  KIDNEY_TOTAL: 1.9 g
  LIVER: 9.7 g
  A/G: 1
  ALP: 1280.2 IU/L
  ALT: 43 IU/L
  AST: 67.8 IU/L
  BUN: 14.6 mg/dL
  CRE: 0.2 mg/dL
  Ca: 11 mg/dL
  Cl: 103.4 meq/L
  DBIL: 0.01 mg/dL
  GLC: 189.6 mg/dL
  IP: 7.9 mg/dL
  K: 4 meq/L
  LDH: 86.2 IU/L
  Na: 141 meq/L
  PL: 141.8 mg/dL
  RALB: 2.5 g/dL
  TBIL: 0.024 mg/dL
  TC: 78.4 mg/dL
  TG: 88.4 mg/dL
  TP: 5.2 g/dL
  gamma-GTP: 1 IU/L
[5]
  TERMINAL_BW: 202.5 g
  APTT: 18.7 s
  Bas: 0%
  Eos: 0.8%
  Fbg: 270.6 mg/dL
  Hb: 12.9 g/dL
  Ht: 38.9%
  Lym: 76.4%
  MCH: 21 pg
  MCHC: 33.2%
  MCV: 63.4 fL
  Mono: 3%
  Neu: 18.8%
  PT: 14.3 s
  Plat: 126.3 x10_4/uL
  RBC: 615.4 x10_4/ul
  Ret: 7.8%
  WBC: 82 x10_2/uL
  KIDNEY_L: 0.9 g
  KIDNEY_R: 0.9 g
  KIDNEY_TOTAL: 1.8 g
  LIVER: 8.9 g
  A/G: 1
  ALP: 1334 IU/L
  ALT: 39.2 IU/L
  AST: 71.2 IU/L
  BUN: 10.4 mg/dL
  CRE: 0.2 mg/dL
  Ca: 10.7 mg/dL
  Cl: 103.8 meq/L
  DBIL: 0.006 mg/dL
  GLC: 161.2 mg/dL
  IP: 8.1 mg/dL
  K: 4 meq/L
  LDH: 67.8 IU/L
  Na: 139.8 meq/L
  PL: 144.4 mg/dL
  RALB: 2.5 g/dL
  TBIL: 0.044 mg/dL
  TC: 75.6 mg/dL
  TG: 71.4 mg/dL
  TP: 5.2 g/dL
  gamma-GTP: 1 IU/L
[6]
  TERMINAL_BW: 201.1 g
  APTT: 17.9 s
  Bas: 0%
  Eos: 0.4%
  Fbg: 280 mg/dL
  Hb: 13.3 g/dL
  Ht: 40.9%
  Lym: 65.8%
  MCH: 21 pg
  MCHC: 32.7%
  MCV: 64.4 fL
  Mono: 3.6%
  Neu: 29.2%
  PT: 14 s
  Plat: 133.5 x10_4/uL
  RBC: 635 x10_4/ul
  Ret: 8.1%
  WBC: 68.2 x10_2/uL
  KIDNEY_L: 0.9 g
  KIDNEY_R: 1 g
  KIDNEY_TOTAL: 1.9 g
  LIVER: 8.2 g
  A/G: 1
  ALP: 1506 IU/L
  ALT: 40 IU/L
  AST: 71.4 IU/L
  BUN: 10.4 mg/dL
  CRE: 0.2 mg/dL
  Ca: 10.7 mg/dL
  Cl: 104.8 meq/L
  DBIL: 0.01 mg/dL
  GLC: 168.4 mg/dL
  IP: 9.3 mg/dL
  K: 4.1 meq/L
  LDH: 77.6 IU/L
  Na: 141.2 meq/L
  PL: 135.4 mg/dL
  RALB: 2.6 g/dL
  TBIL: 0.04 mg/dL
  TC: 70.6 mg/dL
  TG: 33 mg/dL
  TP: 5.3 g/dL
  gamma-GTP: 1.4 IU/L
[7]
  TERMINAL_BW: 200.1 g
  APTT: 16.2 s
  Bas: 0%
  Eos: 1%
  Fbg: 294.8 mg/dL
  Hb: 13.3 g/dL
  Ht: 40.5%
  Lym: 67.4%
  MCH: 20.8 pg
  MCHC: 32.8%
  MCV: 63.5 fL
  Mono: 3.2%
  Neu: 28%
  PT: 13.8 s
  Plat: 122 x10_4/uL
  RBC: 638 x10_4/ul
  Ret: 7.8%
  WBC: 50.2 x10_2/uL
  KIDNEY_L: 0.9 g
  KIDNEY_R: 0.9 g
  KIDNEY_TOTAL: 1.8 g
  LIVER: 7.6 g
  A/G: 1
  ALP: 1365 IU/L
  ALT: 37.4 IU/L
  AST: 68.8 IU/L
  BUN: 9.8 mg/dL
  CRE: 0.2 mg/dL
  Ca: 10.4 mg/dL
  Cl: 107 meq/L
  DBIL: 0.014 mg/dL
  GLC: 169.4 mg/dL
  IP: 10.1 mg/dL
  K: 4.2 meq/L
  LDH: 72 IU/L
  Na: 141.4 meq/L
  PL: 127.8 mg/dL
  RALB: 2.6 g/dL
  TBIL: 0.046 mg/dL
  TC: 68.4 mg/dL
  TG: 40 mg/dL
  TP: 5.2 g/dL
  gamma-GTP: 1 IU/L
[8]
  TERMINAL_BW: 203.3 g
  APTT: 15.4 s
  Bas: 0%
  Eos: 0.4%
  Fbg: 378 mg/dL
  Hb: 10.3 g/dL
  Ht: 32%
  Lym: 54.4%
  MCH: 20.7 pg
  MCHC: 32.3%
  MCV: 64 fL
  Mono: 2.4%
  Neu: 42%
  PT: 13 s
  Plat: 78.4 x10_4/uL
  RBC: 500.2 x10_4/ul
  Ret: 8.5%
  WBC: 96.3 x10_2/uL
  KIDNEY_L: 0.9 g
  KIDNEY_R: 0.9 g
  KIDNEY_TOTAL: 1.8 g
  LIVER: 9.1 g
  A/G: 0.9
  ALP: 747.4 IU/L
  ALT: 30.2 IU/L
  AST: 42.6 IU/L
  BUN: 24 mg/dL
  CRE: 0.2 mg/dL
  Ca: 9.3 mg/dL
  Cl: 105.2 meq/L
  DBIL: 0.008 mg/dL
  GLC: 162.4 mg/dL
  IP: 9.8 mg/dL
  K: 5.1 meq/L
  LDH: 58.8 IU/L
  Na: 137.2 meq/L
  PL: 117 mg/dL
  RALB: 1.5 g/dL
  TBIL: 0.024 mg/dL
  TC: 67.4 mg/dL
  TG: 126.6 mg/dL
  TP: 3.2 g/dL
  gamma-GTP: 0.8 IU/L
